Laboratory results from PMC7725785, “TRIB3 promotes MYC-associated lymphoma development through suppression of UBE3B-mediated MYC degradation” (Nature Communications, 2020).

Assays:
DLBCL^T156 PDX = assay: PDX model tumor growth and weight, DLBCL T156; format: in vivo, human; conditions: result in words
Description: (§1) Four 5-week-old male NSG mice were implanted subcutaneously with 200 μl of a 1:1 mixture of Matrigel® Basement Membrane Matrix High Concentration (Corning, 354230) and minced fresh tumor fragments resected from lymphoma patients. Approximately 3–4 weeks following implantation, the first-generation mice (G1) were killed, and tumor masses were isolated. The tumor cells were tested for human CD19 (BCL) or CD3 expression (T cell lymphoma), and the remaining tumor mass was cut into 3-mm^3 sections and passaged into 4–5 NSG mice as the second generation (G2). After stable passage of the third generation (G3), the tumor mass of the fourth generation (G4) was equally cut into 3-mm^3 pieces and then passaged subcutaneously into 30–50 NSG mice (100 μl of a 1:2 mixture of Matrigel and tumor tissue) for in vivo treatment (6–8 mice per group, dependent on the experimental drug treatment). During and after treatment with the vehicle control or the indicated agent, tumor burden was evaluated by measuring the tumor volume to determine the therapeutic efficacy in the PDX models. […]
(§2) To evaluate the survival rate, these mice were monitored for 8 months (Myc^Eμ mice). […] During the indicated treatments, tumor burden was evaluated by measuring the tumor volume to determine the therapeutic efficacy in the PDX models.

[1] = system: murine Myc^Eμ lymphoma cells in NSG mice; assay: Limiting dilution transplantation of BCL cells into NSG mice (survival of secondary recipients); format: in vivo, mouse; conditions: NSG mice injected i.p. with lymphoma cells from PCM4 (2 mg/kg) group versus PCON group, 70 days; result in words
Text: (§3) To evaluate the survival rate of secondary recipients, these mice were monitored for 70 days. For the evaluation of IHC staining and protein expression, three mice of each group were killed at the end of treatment, and the thymuses, spleens and LNs were collected for pathology detection, Co-IP, and western blot assays.

[2] = system: lymphoma and leukemia cells; assay: Cell viability (CCK-8) of lymphoma and leukemia cells with PCM4; format: cell-based, human; conditions: result in words
DLBCL^T169 PDX = assay: PDX model tumor growth and weight, DLBCL T169; format: in vivo, human; conditions: result in words
Description: as §1, §2

Myc^Eμ BCL mice = assay: Kaplan-Meier survival of Myc^Eμ BCL mice treated with DOX and peptide; format: in vivo, mouse; conditions: DOX 2 mg/kg i.p. once a week and PCM4 5 mg/kg i.v. three times a week, 3 months, result in words
Description: as §2

PTCL^T144 PDX = assay: PDX model tumor growth and weight, PTCL T144; format: in vivo, human; conditions: result in words
Description: as §1, §2

MYC protein = MYC protein level by immunoblotting in Jurkat and Raji cells; format: cell-based, human; conditions: 4 μM, result in words
Description: (§4) Co-IP experiments were performed as described previously. Briefly, cells were collected and lysed for 30 min on ice. Soluble lysates were incubated with the indicated antibodies at 4 °C overnight, followed by incubation with Protein A/G Plus-Agarose (Santa Cruz Biotechnology, TX, USA) at 4 °C for 2 h. Soluble lysates were incubated with the indicated Anti-Myc magnetic beads (Bimake.com, B26302), Anti-Flag Affinity Gel (Bimake.com, B23102) or Anti-HA Affinity Gel (Bimake.com, B23302) at 4 °C overnight. Immunocomplexes were separated from the beads and then boiled for 10 min. The precipitated proteins were subjected to SDS-PAGE and blotted with specific antibodies. For immunoblotting assays, proteins were extracted from cells, spleens, or lymphoma tissues using RIPA buffer (Cell Signaling Technology, MA, USA). A BCA Protein Assay Kit was used to determine protein concentrations. Protein extracts were separated by SDS-PAGE, transferred onto PVDF membranes, and subjected to immunoblot analysis. Western blot images were captured by a Tanon 5200 chemiluminescent imaging system (Tanon, Shanghai, Beijing). Human lymphoma and benign LN paraffin tissue microarrays were purchased from US Biomax (LM482a).

[3] = system: MYC transcriptional activity; assay: E-box luciferase reporter assay of MYC transcriptional activity in Raji cells; format: cell-based, human; conditions: 24 h after transfection, versus PCON, result in words
Description: Cells were seeded in 12-well plates and transfected with E-box-dependent luciferase reporters (Yeasen Inc.) using VigoFect (Vigorous Biotechnology Beijing, China). pTK-Renilla was used as an internal control. Luciferase activity was measured 20–24 h after transfection using the Dual-luciferase Reporter Assay System (Promega, USA).

[4] = system: TRIB3-MYC interaction and MYC expression; assay: TRIB3/MYC Co-IP and MYC immunoblot in spleens and LNs of treated Myc^Eμ mice; format: in vivo, mouse; conditions: Myc^Eμ mice; result in words
Description: as §3
as §4, with “Western blot images were captured by a Tanon 5200 chemiluminescent imaging system (Tanon, Shanghai, Beijing). Human lymphoma and benign LN paraffin tissue microarrays were purchased from US Biomax (LM482a).” left out

[5] = system: TRIB3 with AKT, p62, COP1, and PML; assay: Co-IP of TRIB3/AKT, TRIB3/p62, TRIB3/COP1, TRIB3/PML (off-target); format: cell-based; conditions: result in words
Description: as §4

primary mouse BCL cells = assay: Serial colony formation of primary mouse BCL cells from Myc^Eμ mice; format: cell-based; conditions: result in words
Text: Mouse and human lymphoma cells formed colonies upon serum culture (P1). Single colonies of lymphoma cells were dispersed in methylcellulose-based medium MethoCul^TM M3630 (StemCell, 03630) or MethoCult™SF H4536 (StemCell, 04536). A representative plate was then washed and cells were resuspended and replated. After an additional 14 days, colonies were counted (P2).

Sequence: HLYVSPWGGKRREQLKHKLEQLR [PCM4, fused peptide generated by linking CM4 to a cell-penetrating peptide]
- growth and weights of tumors, combination of PCM4 and DOX (DLBCL^T156 PDX; PDX T156 (high TRIB3 and MYC expression), PCM4 5 mg/kg and DOX 2 mg/kg): further decreased the growth and weights of tumors
- tumor growth of PDX (DLBCL^T156 PDX; PDX T156, NSG mice, PCM4 5 mg/kg i.v. three times a week): inhibited the tumor growth
- survival rate of secondary recipients [1]: better survival rate
- proliferation of lymphoma and leukemia cells [2]: inhibited the proliferation of most lymphoma and leukemia cells in a time-dependent manner
- growth and weights of tumors, combination of PCM4 and DOX (DLBCL^T169 PDX; PDX T169 (high TRIB3 and MYC expression), PCM4 5 mg/kg and DOX 2 mg/kg): further decreased the growth and weights of tumors
- tumor growth of PDX (DLBCL^T169 PDX; PDX T169, NSG mice, PCM4 5 mg/kg i.v. three times a week): inhibited the tumor growth
- therapeutic efficacy / survival rate in combination with DOX (Myc^Eμ BCL mice): enhanced the therapeutic efficacy of DOX
- growth and weights of tumors, combination of PCM4 and DOX (PTCL^T144 PDX; PDX T144 (high TRIB3 and MYC expression), PCM4 5 mg/kg and DOX 2 mg/kg): further decreased the growth and weights of tumors
- tumor growth of PDX (PTCL^T144 PDX; PDX T144, NSG mice, PCM4 5 mg/kg i.v. three times a week): inhibited the tumor growth
- MYC abundance (MYC protein): reduced the MYC abundance
- MYC transcriptional activity [3]: reduced MYC transcriptional activity
- TRIB3-MYC interaction and MYC expression in the LNs and spleens [4]: decrease in the TRIB3-MYC interaction and MYC expression
- off-target: interactions of TRIB3 with AKT, p62, COP1, and PML [5]: did not disturb the interactions of TRIB3 with these proteins
- intrinsic clonogenicity of primary mouse BCL cells (primary mouse BCL cells): reduced the intrinsic clonogenicity
